Patent publication US11028051B2, “Tetrahydroquinoline-based bromodomain inhibitors” (St. Jude Children's Research Hospital, priority 2016, dated 2021)

How the values were obtained:
Test in all cases: competitive TR-FRET assay, BET-BD with acetylated peptide ligand
Assay type in all cases: binding
BRD2-BD1 = BRD2-BD1 (Homo sapiens (Human), UniProt P25440); settings: BRD2-BD1; Table 11 additional modifications; read-out: 2.1 EC50
Method: (§1) Inhibitor potency was determined using a competitive TR-FRET assay as detailed herein, measuring interaction of the respective BET-BD with an acetylated peptide ligand (Table 2).

BRD2-BD2 = BRD2-BD2 (Homo sapiens (Human), UniProt P25440); settings: for EC50: BRD2-BD2, Table 11 additional modifications, read-out: 2.2 EC50; for 2.1/2.2: ratio of BRD2-BD1 EC50 to BRD2-BD2 EC50 (selectivity)
Method: as §1

BRD3-BD1 = BRD3-BD1 (Homo sapiens (Human), UniProt Q15059); settings: BRD3-BD1; Table 11 additional modifications; read-out: 3.1 EC50
Method: as §1

BRD4-BD1 = BRD4-BD1 (Homo sapiens (Human), UniProt O60885); settings: BRD4-BD1; Table 11 additional modifications; read-out: 4.1 EC50
Method: as §1

BRDT = BRDT (Homo sapiens, UniProt Q58F21); settings: BRDT; Table 11 additional modifications; read-out: BRDT EC50
Method: as §1

Chain of BRD3-BD1 (Q15059 34-140): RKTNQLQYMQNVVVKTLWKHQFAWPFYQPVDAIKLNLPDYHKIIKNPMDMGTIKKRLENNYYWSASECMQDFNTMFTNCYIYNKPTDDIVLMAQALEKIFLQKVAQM
Chain of BRD2-BD1 (P25440 74-180): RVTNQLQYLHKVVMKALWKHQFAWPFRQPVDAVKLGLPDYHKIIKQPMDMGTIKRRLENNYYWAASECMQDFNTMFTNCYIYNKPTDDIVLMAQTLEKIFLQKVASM
Chain of BRD2-BD2 (P25440 344-453): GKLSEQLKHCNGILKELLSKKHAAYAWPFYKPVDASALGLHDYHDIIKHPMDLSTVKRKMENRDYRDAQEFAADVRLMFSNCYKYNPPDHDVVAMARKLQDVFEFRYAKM

| SMILES | EC50 (BRD2-BD1) | EC50 (BRD2-BD2) | 2.1/2.2 (BRD2-BD2) | EC50 (BRD3-BD1) | EC50 (BRD4-BD1) | EC50 (BRDT) |
| --- | --- | --- | --- | --- | --- | --- |
| CC(=O)Nc1cccc(-c2ccc3c(c2)[C@H](Nc2ccc(CN)cc2)C[C@H](C)N3C(C)=O)c1 [compound 26] | 0.47 µM | 0.023 µM | 20 | 0.078 µM | 1.1 µM | > 36 µM |
| CC(=O)Nc1cccc(-c2ccc3c(c2)[C@H](Nc2ccc(-c4nnn(C)n4)cc2)C[C@H](C)N3C(C)=O)c1 [compound 27] | 0.22 µM | 0.035 µM | 6.3 | 0.31 µM | 2.1 µM | 0.66 µM |
| CC(=O)Nc1cccc(-c2ccc3c(c2)[C@H](Nc2ccc(-c4nnnn4C)cc2)C[C@H](C)N3C(C)=O)c1 [compound 28] | > 52 µM | 0.01 µM | – | > 52 µM | > 52 µM | > 52 µM |
| CC(=O)Nc1cccc(-c2ccc3c(c2)[C@H](Nc2ccc(C#N)cc2)C[C@H](C)N3C(C)=O)c1 [compound 29] | 0.46 µM | 0.008 µM | 58 | 0.26 µM | 1.2 µM | 0.3 µM |
| CC(=O)Nc1cccc(-c2ccc3c(c2)[C@H](Nc2ccc(C(=O)CO)cc2)C[C@H](C)N3C(C)=O)c1 [compound 30] | 2.9 µM | 0.02 µM | 145 | 9.8 µM | > 70 µM | 4.8 µM |
| CC(=O)Nc1cccc(-c2ccc3c(c2)[C@H](Nc2cccc4ncccc24)C[C@H](C)N3C(C)=O)c1 [compound 31] | 0.88 µM | 0.02 µM | 44 | 0.29 µM | 0.59 µM | 1.2 µM |
| CC(=O)Nc1cccc(-c2ccc3c(c2)[C@H](Nc2cccc4ccccc24)C[C@H](C)N3C(C)=O)c1 [compound 32] | > 23 µM | > 23 µM | – | > 23 µM | > 23 µM | > 23 µM |
| CC(=O)Nc1cccc(-c2ccc3c(c2)[C@H](Nc2cccc4cccnc24)C[C@H](C)N3C(C)=O)c1 [compound 33] | > 4.9 µM | 10 µM | – | > 4.9 µM | > 4.9 µM | > 4.9 µM |
| CC(=O)Nc1cccc(-c2ccc3c(c2)[C@H](Nc2ccc(-c4nnco4)cc2)C[C@H](C)N3C(C)=O)c1 [compound 34] | 0.41 µM | 0.02 µM | 21 | 0.51 µM | 5.1 µM | 0.89 µM |
| CC(=O)Nc1cccc(-c2ccc3c(c2)[C@H](Nc2ccc(-c4nnc(C)o4)cc2)C[C@H](C)N3C(C)=O)c1 [compound 35] | 0.08 µM | 0.012 µM | 6.7 | 0.13 µM | 2.5 µM | 0.14 µM |
| CC(=O)N1c2ccc(-c3cccc(NS(C)(=O)=O)c3)cc2[C@H](NC(=O)OC(C)C)C[C@@H]1C [compound 93] | 0.58 µM | 0.12 µM | 4.6 | 0.15 µM | 0.38 µM | 1.2 µM |
| CC(=O)N1c2ccc(-c3cccc(NC(=O)C4CC4)c3)cc2[C@H](NC(=O)OC(C)C)C[C@@H]1C [compound 94] | 2 µM | 0.17 µM | 1.2 | 0.43 µM | 1.4 µM | 84 µM |
| CC(=O)N1c2ccc(-c3cccc(NC(=O)c4ccc(C)cc4)c3)cc2[C@H](NC(=O)OC(C)C)C[C@@H]1C [compound 95] | 3.1 µM | 0.42 µM | 1.2 | 0.38 µM | 2 µM | 0.51 µM |
| CC(=O)N1c2ccc(-c3cccc(NCC(C)C)c3)cc2[C@H](NC(=O)OC(C)C)C[C@@H]1C [compound 96] | 2.6 µM | 0.79 µM | 11 | 0.83 µM | 1.9 µM | 6.2 µM |
| CC(=O)N1c2ccc(-c3ccnn3C)cc2[C@H](NC(=O)OC(C)C)C[C@@H]1C [compound 97] | 100 µM | 2.5 µM | 4.8 | 7.8 µM | 20 µM | 40 µM |
| CC(=O)N1c2ccc(-c3cccc(NC(=O)C(C)C)c3)cc2[C@H](NC(=O)OC(C)C)C[C@@H]1C [compound 98] | 1.5 µM | 0.12 µM | 15 | 0.24 µM | 0.9 µM | 1.2 µM |
| CC(=O)N1c2ccc(-c3cccc(NC(=O)C4CCCCC4)c3)cc2[C@H](NC(=O)OC(C)C)C[C@@H]1C [compound 99] | 0.94 µM | 0.12 µM | 12 | 0.25 µM | 1 µM | 0.73 µM |
